The text below walks through data of US9303069B2, “Peptides for treating cancer” (University of Mississippi Medical Center, priority 2014, dated 2016).

Test [1] concerns SKOV3 cells. The class given is cell-based, human. Particulars: then cisplatin 24 hours, read-out: IC50 of cisplatin (survival). On the procedure:
Thus, a peptide (hereafter IRIS peptide) composed of a cell/nucleus penetrating signal (FIG. 26) fused to BRCA1-IRIS intron 11 (FIG. 26) was synthesized. Equal numbers of HOSE, HOSE/IRIS, SKOV3, OVCAR3, OVCAR420 and OV-90 cells were grown in the presence of increasing concentrations of IRIS peptide for 48 hours.
To investigate the contribution of ErbB2 and TrkB to BRCA1-IRIS-induced cisplatin resistance, equal numbers of SKOV3 cells were either depleted from BRCA1-IRIS, ErbB2 or TrkB using specific siRNAs for 48 hours before they were (i) exposed to increasing concentrations of cisplatin for another 24 hours or (ii) exposed to IRIS peptide, ErbB2 inhibitor (CP-724714), TrkB inhibitor (K252a) or both for 24 hours, before they were exposed to increasing concentrations of cisplatin for another 24 hours.
Cell viability measurement. Cell viability under different experimental conditions was determined using the MTS assay […]. Briefly, SKOV3, OVACAR3, HOSE and HOSE/IRIS cells (2.5×10^4 cells per well) were seeded in 96 well plates and incubated overnight at 37° C. in 10% humidified CO2 atmosphere in varying concentrations of IRIS peptide, or inhibitors of ErbB2 (CP-724714), EGFR (Erlotinib), TrkB (K252a), JNK (SP600125), p38 (SB203580), ERK (PD98059) and PI3′K/AKT (LY294002) inhibitors for 24 hours at 37° C. Cell Titer 96® Aqueous (Promega, Madison, Wis., USA) was used to measure viability following manufactures instructions. Cell viability (%) was expressed as a ratio to control cells×100. Growth inhibition was also determined by manually counting cells in five different microscopic fields. Change in cell numbers (fold) was expressed as a ratio to control cells×100. All experiments were done in at least triplicates, three different times. * is p≦0.05, ** is p≦0.001 and *** is p≦0.0001.
Transfections of siRNA. siRNAs for human ErbB2 and TrkB were purchased from Ambion and Santa Cruz Biotechnology, USA. Custom synthesized siRNA against BRCA1 IRIS was used. siRNA against luciferase gene was used as the negative control. Sub-confluent cells were transfected in 6- or 96-well plates with ErbB2 (100 nM), TrkB (100 nM), BRCA1 IRIS (200 nM) or control siRNA using Oligofectamine™ reagent (GibcoBRL Inc, USA) following the instructions of the manufacturer. Protein expression was tested by Western blot after 72 hours of siRNA transfection. Cell viability was evaluated by MTS or by manual counting after 72 hours of siRNA exposure alone or in combination with cisplatin exposure (for an additional 24 hours).

Test [2] has as its system BRCA1-IRIS. Briefly: BRCA1-IRIS expression in ovarian cells (Western analysis). The class given is cell-based, human. As to conditions: 10, 20 or 30 μM of cisplatin for 24 hours. From the text: At these low concentrations of cisplatin BRCA1-IRIS expression was induced in HOSE cells and remained high in HOSE/IRIS cells (FIG. 17). […] Cell lines expressing the lowest levels of BRCA1-IRIS (i.e.

Test [3] has as its system BRCA1-IRIS, TrkB, ErbB2, AKT, p-AKT, p-FOXO, Cyclin D1, Bcl-2 and survivin. Briefly: Expression of growth and survival proteins in HOSE and HOSE/IRIS cells (Western). Particulars: IRIS peptide 5 μM, cisplatin 10 μM, combination 2.5 μM IRIS peptide + 5 μM cisplatin. The class given is cell-based, human. From the text:
HOSE cells overexpressing IRIS show a higher degree of resistance to cisplatin than HOSE cells (compare blue to black line in FIG. 30).

Test [4] relates to SKOV3 tumors. The experiment in a line: In vivo efficacy on established SKOV3 tumors. As to conditions: day 16; cisplatin 5 mg/kg i.p., IRIS peptide 10 mg/kg i.t., every third day, four times. Also noted: species or system mice. On the procedure:
Further, to determine whether IRIS peptide could have any efficacy in vivo and/or whether it sensitizes ovarian tumors to low, clinically relevant concentrations of cisplatin, four sets of nude mice (n=6 each) were subcutaneously injected with SKOV3 cells. Ten days later, when tumors were ˜250 mm^3 in volume, one group was treated with controls (i.e. DMSO delivered i.p. and scrambled peptide delivered directly into the tumors, i.t.), a second group was treated with cisplatin (5 mg/kg, delivered i.p.), a third group was treated with IRIS peptide (10 mg/kg, injected i.t.), and a fourth group was treated with both. Treatments were delivered every third day for a total of four times. For the next 16 days, tumors were measured daily with a caliper. Mice were then sacrificed, and their tumors or their remnants were taken.
Efficacy of BRCA1-IRIS inhibitory peptide, in vivo. Six to eight week old female athymic SCID mice were injected subcutaneously with 2.5×10^6 SKOV3 cells in the flank region. Their respective tumor growth was measured with a caliper. When the tumor volume reached 250 mm^3, mice were randomly grouped into four groups. One group (control) was treated with scrambled peptide (10 mg/kg) and DMSO. A second was treated with BRCA1-IRIS inhibitory peptide (10 mg/kg, body weight). […] Change in tumor volume was measured to monitor the efficacy of the treatment. […]

For test [5], the system named is BRCA1-IRIS and survivin. The experiment in a line: IHC of SKOV3 tumors for BRCA1-IRIS and survivin. Particulars: SKOV3 tumors after treatment. The class given is in vivo, mice. The text has this:
Isolated tumors were mounted, sectioned and IHC stained for BRCA1-IRIS and survivin. […] It is possible that SKOV3 contain a heterogeneous population of cells that differ in their BRCA1-IRIS expression and thus that the remaining tumors are from those expressing no or low BRCA1-IRIS.
Immunohistochemistry (IHC). Ovarian tissue microarrays comprised of normal, cancer and metastatic tissues were purchased from US Biomax, Inc. Paraffin-embedded tissue sections were de-waxed in xylene and rehydrated in alcohol. Antigen-retrieval for FOXO3a and survivin was performed by heating the slides in citrate buffer (10 μM, pH 6.0) using microwave for 10 minutes. Slides were then cooled to room temperature (RT) and washed with water followed by PBS for 15 minutes each. Antigen-retrieval for BRCA1-IRIS was performed by incubating the slides in pepsin (10 μM) for 20 minutes at 37° C. Endogenous peroxidase activity was suppressed by treating the slides with 3% hydrogen peroxide for 10 minutes. After washing steps slides were incubated for 1 hour at room temperature with antibodies to human FOXO3a (Cell Signaling Technology, USA 1:400) and survivin (Cell Signaling Technology, USA 1:400). For BRCA1-IRIS staining, slides were incubated overnight at 4° C. with monoclonal BRCA1-IRIS antibody at a 1:75 dilution. […]

Molecules are shown by their SMILES. Where two headings read alike, the source gives them in different places.

In the case of `N.N.[Cl][Pt][Cl]` [cisplatin], the IC50 – broadly, the concentration at which inhibition is half-maximal – in test [1] (SKOV3, BRCA1-IRIS silencing (siRNA) 48 hours) was around 2.5 µM; in test [1] (SKOV3, ErbB2 inhibitor (CP-724714) 24 hours), around 30 µM; in test [1] (SKOV3, IRIS peptide 24 hours), around 7.5 µM; in test [1] (SKOV3, TrkB inhibitor (K252a) 24 hours), around 50 µM; in test [1] (SKOV3, siErbB2 transfected 48 hours), around 7.5 µM; in test [1] (SKOV3, siLuc transfected 48 hours), above 50 µM. The IC50 in test [1] (SKOV3, siTrkB transfected 48 hours) is around 20 µM; in test [1] (SKOV3, vehicle treated 24 hours), above 50 µM. Further, the “BRCA1-IRIS expression in HOSE cells” value in test [2] is “induced”. The “expression of BRCA1-IRIS, TrkB, ErbB2, AKT, p-AKT, p-FOXO, Cyclin D1, Bcl-2 and survivin” value in test [3] was “increased expression”. Also, the “reduction in tumor size” value in test [4] is given as around 40%. The “BRCA1-IRIS and survivin staining of remaining tumor” value in test [5] is “increased IRIS and survivin expression”.
